Common to all, as to assay: DTP human tumour cell line panel, 48 h
The test system of test [1] is SF-268.
Test [2] concerns BT-549.
In test [3] the test system is HT-29.
Test [4] deals with Hs-578T.
Test [5] relates to NCI-H460.
Test [6] has as its system SR.
For test [7], the system named is LOX IMVI.
Test [8] has as its system HL-60.
For test [9], the system named is NCI-H23.
The subject of test [10] is M14.
Test [11] concerns UACC-62.
The test system of test [12] is SN12C.
Test [13] deals with IGROV-1.
The subject of test [14] is HOP-92.
For test [15], the system named is 786-0.
The subject of test [16] is SF-295.
For test [17], the system named is SF-539.
Test [18] has as its system SNB-75.
Test [19] has as its system ACHN.
The test system of test [20] is DMS-114.

Structures are written as SMILES.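 How tested: cells in 96-well plates exposed to compound for 48 hours at five concentrations. The concentration for 50% growth inhibition is given as GI50.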 Active and inactive are the calls of the source. Rule as the data show it: active = GI50 up to about 1.1 µM and inactive = higher.

In the case of `CCCCOc1ccc(NC(=N)Nc2ccc(Cl)cc2)cc1`, the GI50 in [1] is 0.92 µM (active); in [2], 9.57 µM (inactive); in test [3], 0.243 µM (active); in test [4] it was 5.5 µM (inactive); in test [5], 3.7 µM (inactive); in test [6] it was 3.38 µM (inactive). Further, the GI50 was 3.05 µM (inactive) in test [7]; 6.49 µM (inactive) in test [8]; 1.09 µM (active) in test [9]; 3.66 µM (inactive) in test [10]; 12.3 µM (inactive) in test [11]; 0.791 µM (active) in test [12]. Further, the GI50 in test [13] was 1.22 µM (inactive); in test [14], 2.58 µM (inactive); in test [15], 11.1 µM (inactive); in test [16] it was 2.3 µM (inactive); in test [17], 0.558 µM (active); in test [18], 4.47 µM (inactive). In addition, the GI50 in test [19] is 0.462 µM (active).
Take `CC(=O)OC1CCC2(C)C(=CCC3C2CCC2(C)C3CC3OC4(CCC(C)CN4)C(C)C32)C1` (stereo not given): the GI50 was > 100 µM (inactive) in [1]; > 100 µM (inactive) in test [2]; > 100 µM (inactive) in test [3]; > 100 µM (inactive) in test [4]; > 100 µM (inactive) in test [5]; 80.2 µM (inactive) in test [6]. The GI50 in test [7], in test [8], in [9], in [10], in test [11] and in test [12] was > 100 µM (inactive) in each case. In addition, the GI50 in test [13] was > 100 µM (inactive); in test [14], > 100 µM (inactive); in test [15], 74.3 µM (inactive); in [16] it was > 100 µM (inactive); in test [17], > 100 µM (inactive); in test [18], > 100 µM (inactive). Moreover, in [19], the GI50 is > 100 µM (inactive).
Regarding `O=C(O)/C(Cc1c[nH]nn1)=N\O`, the GI50 in [1], in test [2], in test [3], in test [4], in test [5] and in [6] was > 100 µM (inactive) throughout. The GI50 in [7], in test [8], in test [9], in test [10], in [11] and in test [12] was > 100 µM (inactive) each time. Moreover, the GI50 in test [13], in test [14], in test [15], in [16], in test [17] and in test [18] was > 100 µM (inactive) in each case. Also, the GI50 in test [19] was > 100 µM (inactive).
With `CC(C)(C)c1cc(C2COC(=O)COCCOCC(=O)OCCOCCO2)cc(C(C)(C)C)c1O` (stereo not given), the GI50 in test [1] was 34 µM (inactive); in test [2] it was > 51.1 µM (inactive); in [3] it was 37.2 µM (inactive); in test [4], 27.7 µM (inactive); in test [5], 49.4 µM (inactive); in test [6], 21.8 µM (inactive). For the same molecule, the GI50 is 18.7 µM (inactive) in test [7]; 39.2 µM (inactive) in test [8]; 42.7 µM (inactive) in [9]; 42.1 µM (inactive) in [10]; 47.9 µM (inactive) in [11]; 21.8 µM (inactive) in test [12]. Also, the GI50 was 72.8 µM (inactive) in test [13]; 24.7 µM (inactive) in [14]; 10 µM (inactive) in test [15]; 24 µM (inactive) in test [16]; > 82.8 µM (inactive) in test [17]; 20.9 µM (inactive) in test [18]. Further, the GI50 in test [19] was 20.7 µM (inactive).
Consider `C=C(C)C(=O)CC[C@@H](C)[C@H]1[C@@H](OC2OC(CO)C(O)C(O)C2O)C[C@@]2(C)[C@@H]3C[C@H](O)C4C(C)(C)[C@@H](OC5OC(CO)C(O)C(O)C5O)CC[C@@]45C[C@@]35CC[C@]12C` (stereo not given in full), for which the GI50 was > 100 µM (inactive) in test [1]; 36.6 µM (inactive) in test [2]; > 100 µM (inactive) in test [3]; 91 µM (inactive) in test [4]; 45.8 µM (inactive) in test [5]; 71.1 µM (inactive) in test [6]. Further, the GI50 in test [7] was > 100 µM (inactive); in test [8] it was 19.7 µM (inactive); in test [9], 87.3 µM (inactive); in [10], > 100 µM (inactive); in test [11], > 100 µM (inactive); in test [12], 68.1 µM (inactive). Further, the GI50 in [13] was > 100 µM (inactive); in test [14] it was > 100 µM (inactive); in test [15], > 100 µM (inactive); in [16] it was 71.6 µM (inactive); in test [17] it was 89.9 µM (inactive); in test [18], > 100 µM (inactive). Further, in [19], the GI50 was > 100 µM (inactive).
Turning to `COc1ccc2c(c1)c(=O)c1c(NCCN(C)C)ccc3c(=O)n(CCN(C)C)c(=O)n2c31`, the 50% growth inhibitory concentration (GI50) in [1] was 0.114 µM (active); in [2], 0.764 µM (active); in [3] it was 0.0197 µM (active); in [4], 0.178 µM (active); in test [5], < 0.01 µM (active); in [6], < 0.01 µM (active). Further, the GI50 was 0.104 µM (active) in test [7]; 0.101 µM (active) in test [8]; 0.11 µM (active) in [9]; 0.159 µM (active) in test [10]; 0.156 µM (active) in [11]; 0.0298 µM (active) in test [12]. The GI50 is < 0.0232 µM (active) in [13]; 0.0483 µM (active) in test [14]; < 0.0125 µM (active) in test [15]; 0.0853 µM (active) in test [16]; 0.0376 µM (active) in test [17]; 0.173 µM (active) in test [18]. Moreover, the GI50 in test [19] was 0.0138 µM (active).
Consider `CC(=O)OC/C=C/Cn1nc(Br)c(=O)[nH]c1=O`, for which the GI50 in [1], in [2], in [3], in test [4], in [5] and in [6] was > 100 µM (inactive) each time. For the same molecule, the GI50 in test [7], in [8], in [9], in test [10], in [11] and in [12] was > 100 µM (inactive) throughout. Also, the GI50 in test [13], in test [14], in test [15], in test [16], in test [17] and in test [18] was > 100 µM (inactive) in each case. For the same molecule, the GI50 in test [19] was > 100 µM (inactive).
On to `N#Cc1c(Cl)c2cccnc2n2c1nc1ccccc12`, for which the GI50 in test [1] was 2.66 µM (inactive); in test [2], 4.44 µM (inactive); in [3], 1.94 µM (inactive); in test [4], 2.79 µM (inactive); in test [5], 7.01 µM (inactive); in test [6], 1.08 µM (active). The GI50 is 1.66 µM (inactive) in [7]; 0.507 µM (active) in test [8]; 2.07 µM (inactive) in [9]; 3.15 µM (inactive) in [10]; 3.96 µM (inactive) in test [11]; 2.04 µM (inactive) in test [12]. In addition, the GI50 in test [13] is 1.41 µM (inactive); in test [14] it was 1.97 µM (inactive); in [15], 1.77 µM (inactive); in test [16], 19 µM (inactive); in [17] it was 2.35 µM (inactive); in test [18], 4.38 µM (inactive). Also, the GI50 in [19] is 1.78 µM (inactive).
Consider `CCOC(=O)C1(C(N)=O)C(=O)c2ccncc2C1=O` (stereo not given), for which the GI50 in [1], in [2], in [3], in test [4], in [5] and in test [6] was > 100 µM (inactive) each time. Further, the GI50 in test [7], in test [8], in test [9], in test [10], in [11] and in [12] was > 100 µM (inactive) each time. The GI50 in test [13], in test [14], in [15], in test [16], in test [17] and in [18] was > 100 µM (inactive) throughout. Besides, the GI50 in test [19] was > 100 µM (inactive).
As to `O=C(Oc1cccc(Cl)c1)c1cc2cc(CCl)ccc2oc1=O`, the GI50 in test [1] is 80 µM (inactive); in [2], > 100 µM (inactive); in test [3], 30.5 µM (inactive); in test [4], 59.8 µM (inactive); in [5] it was 37.8 µM (inactive); in [6] it was 63.8 µM (inactive). Besides, the GI50 in test [7] is 40.6 µM (inactive); in test [8], 19 µM (inactive); in test [9], 59 µM (inactive); in test [10], 14.6 µM (inactive); in [11] it was 14.3 µM (inactive); in test [12], 48.9 µM (inactive). For the same molecule, the GI50 in test [13] was 39.2 µM (inactive); in test [14] it was 19.8 µM (inactive); in [15], 41.8 µM (inactive); in [16], 71.1 µM (inactive); in test [17], 49.1 µM (inactive); in test [18] it was 31.4 µM (inactive). In addition, the GI50 in test [19] is 17.6 µM (inactive).
On to `Cn1c(=O)nc2n(-c3cccc(Br)c3)c3ccccc3nc-2c1=O`, for which the GI50 in test [1] is 8.91 µM (inactive); in test [3] it was 2.82 µM (inactive); in [5], 2.96 µM (inactive); in test [8], 2.54 µM (inactive); in [9], 1.61 µM (inactive); in [10], 2.81 µM (inactive). For the same molecule, the GI50 in test [20] was 2.04 µM (inactive); in test [11] it was 1.63 µM (inactive); in test [12], 4.78 µM (inactive); in [13], 7.76 µM (inactive); in test [15], 3.71 µM (inactive); in [16], 5.73 µM (inactive). Besides, the GI50 in test [17] was 5.42 µM (inactive); in [18], 9.82 µM (inactive); in test [19] it was 1.36 µM (inactive).

What is called GI50 is the concentration that inhibits growth by half.

Source of the values: ChEMBL document CHEMBL1201862, “PubChem BioAssay data set” (2004).
